Laboratory results: patent publication US10758551B2, “Methods and compositions for treating pancreatitis” (BAYLOR RESEARCH INSTITUTE, priority 2015, dated 2020)
Entries after “also recorded” stand apart in the source; their conditions may differ.

Key:
[1] = tested on: cerulein-induced pancreatitis; assay: Standard chronic pancreatitis model: cerulein 7 hourly IP injections once per week for 4 weeks, WA one hour prior; assay type: in vivo, C57BL/6 mice
Protocol: (§1) C57BL/6 mice were injected with 7 hourly IP injections of cerulein at […] once per week for 4 weeks in a standard model for chronic pancreatitis or 6 hourly IP injections of cerulein at […] twice per week for 8 weeks in a stringent model for chronic pancreatitis. WA was administered one hour prior to cerulein beginning in week 1 in the standard model and beginning in week 5 in the stringent model of chronic pancreatits. Incidence of pancreatitis was confirmed by histopathological analysis of pancreas tissue, serum amylase levels, and neutrophil infiltration into pancreatic tissue. Cell proliferation was assessed by Ki67 staining. Pancreatic stone protein REG1α was analyzed by immunohistochemical staining. ImageJ software was used to quantify the area of positively stained cells.
(§2) Chronic pancreatitis (CP) model: Animals were subjected to repeated episodes of acute pancreatitis by supramaximal dose (50 ug/kg) of cerulein administration. Standard Chronic pancreatitis: Mice were fasted overnight prior cerulein injection with ad-libitum supply of water. CP was induced when cerulein was injected i.p. (50 ug/kg) every hour for a total of 7 injection, this injection was repeated once a week for 4 weeks. Control mice were injected with saline as sham treatment. Another group of mice received WA (1.25 mg/kg) 1 hr before the first cerulein injection every week (n=6 mice/group). Mice were then sacrificed and blood and tissue were processed as previously mentioned. Stringent chronic pancreatitis: Mice were fasted overnight prior cerulein injection with ad-libitum supply of water. CP was induced when cerulein was injected i.p. (50 ug/kg) every hour for a total of 6 injection, this injection was repeated twice a week for 8 weeks. WA (0.625 mg/kg) was injected 1 hr prior to first cerulein injection but administration was initiated at week 5 and continued till the end of the experiment. Mice were then sacrificed and tissue was harvested as previously mentioned.
Amylase activity assay: Serum samples obtained from mice after treatment were aliquoted and stored at −80 C until further analysis. Serum was analyzed for amylase activity as per the manufacturer's protocol.
(§3) Histology and Immunohistochemistry: Pancreas tissue was placed in 10% formalin immediately after harvesting and fixed for at least 48 hrs at 4° C. before processing. Tissue samples were paraffin embedded and 5 um sections were made and mounted on slides for staining. Hematoxylin and Eosin (H&E) staining was performed for histopathological evaluation. Sirius Red Staining was performed as per manufacturer's protocol on the sections to evaluate fibrotic change in the tissue section. To perform immunohistochemical staining, the sections were deparaffinized in xylene and rehydrated using ethanol. The slides were incubated in a citrate buffer of pH 6 with at 97° C. for 20 minutes. Following the antigen retrieval process, the slides were carefully washed 3 times for 5 minutes in Tris-buffered saline (TBS) containing 0.025% Triton X-100. The slides were blocked in 1% bovine serum albumin (BSA) in TBS for 2 hours at room temperature to block non-specific binding of the antibodies. Then the slides were incubated overnight with primary antibodies which were diluted in TBS with 1% BSA. The following day, the slides were gently rinsed 3 times for 5 minutes in TBS 0.025% Triton X-100. TRITC or FITC labelled secondary antibodies from Invitrogen were diluted in TBS with 1% BSA. The slides were counterstained with DAPI and mounted for microscopic analysis. ImageJ software was used to perform semi-quantitative analysis of the staining.
qRT-PCR: Pancreas tissue samples were stored in RNAlater at −80° C. until extraction procedure. Total RNA from the pancreas tissue were extracted using TRIzol reagent. Tissue was homogenized and debris was removed by centrifugation. Chloroform was added to separate the RNA from other biomolecules, and further precipitated using iso-propanol. […]

[2] = tested on: cerulein-induced pancreatitis; assay: Stringent chronic pancreatitis model: cerulein 6 hourly IP injections twice per week for 8 weeks, WA from week 5; assay type: in vivo, C57BL/6 mice; details: for Histopathology (H&E, Sirius red): pancreas damage, acinar cell atrophy, mononuclear cell infiltration, fibrosis: stringent model, cerulein (50 ug/kg) + Withaferin vs cerulein only, FIGS. 3C, 3F, six animals per group
Protocol: as §1, §2, §3
qRT-PCR: Pancreas tissue samples were stored in RNAlater at −80° C. until extraction procedure. Total RNA from the pancreas tissue were extracted using TRIzol reagent. Tissue was homogenized and debris was removed by centrifugation. Chloroform was added to separate the RNA from other biomolecules, and further precipitated using iso-propanol. RNA pellet was washed with ethanol and quantified using nanodrop 2000. cDNA synthesis was performed using high capacity cDNA reverse transcription kit as per manufacturer's protocol. […]

[3] = tested on: cerulein induced acute pancreatitis; assay: Acute pancreatitis model: cerulein 7 hourly IP injections, WA one hour prior; assay type: in vivo, C57BL/6 mice; details: WA 1.25 mg/kg, n=5/group
Protocol: Acute pancreatitis (AP) model: Animals were fasted overnight prior to induction of pancreatitis by cerulein, water was given ad-libitum. Mice were injected with Cerulein (50 ug/kg intraperitoneally) or saline every hour for a total of 7 injections and were sacrificed 1 hr after the last injection. WA (1.25 mg/kg) was administered 1 hr before first cerulein injection (n=5 mice/group). […] Pancreas was divided for immunohistochemistry, RNA extraction, protein extraction, immune cell infiltration analysis. Amylase activity assay: Serum samples obtained from mice after treatment were aliquoted and stored at −80 C until further analysis. Serum was analyzed for amylase activity as per the manufacturer's protocol. Immune cell infiltration assay: Cell suspension was prepared from the pancreas tissue after digestion with collagenase (2 mg/mL) at 37° C. for 15 mins. Tissue was further mechanically digested by pipetting several times, the suspension was then washed and filtered to obtain only the single cell fraction. Cell suspension obtained was used for flow cytometric analysis of infiltrated immune cells. 1×10^6 pancreatic cells were labelled with anti-CD45, anti-CD11b, anti-CD14, and anti-Ly6g antibodies. Stained cells were detected using FACScanto II and data were analyzed using FlowJo software. To model acute pancreatitis, C57BL/6 mice were injected with 7 hourly IP injections of cerulein at 50 μg/kg. WA (1.25 mg/kg) was administered one hour prior to cerulein. […] Inflammatory cell infiltration was increased in cerulein-treated mice (FIGS. 18B, 18E, and 18H) compared to controls (FIGS. 18A, 18D, and 18G), but were reduced in cerulein and WA-treated mice (FIGS. 18C, 18F, and 18I) compared to cerulein-treated mice.

NF-κB p65 = NF-κB p65 immunohistochemical staining and protein blot of pancreas of cerulein treated mice; assay type: in vivo, mouse; details: WA + cerulein vs cerulein treated mice
Protocol: as §3, with “The slides were counterstained with DAPI and mounted for microscopic analysis.” left out

[4] = tested on: cerulein-induced pancreatitis; assay: Standard chronic pancreatitis model: cerulein 7 hourly IP injections once per week for 4 weeks, WA one hour prior; assay type: in vivo, C57BL/6 mice; details: WA (1 mg/kg) without cerulein; FIG. 2B

SMILES: CC1=C(CO)C(=O)O[C@@H]([C@@H](C)[C@H]2CC[C@H]3[C@@H]4C[C@H]5O[C@]56[C@@H](O)C=CC(=O)[C@]6(C)[C@H]4CC[C@]23C)C1 [WA, (4β,5β,6β,22R)-5,6-Epoxy-4,22,27-trihydroxy-1-oxoergosta-2,24-dien-26-oic acid 6-lactone]
- Ki67+ area in pancreas (ImageJ, semi-quantitative) ([1]; Standard CP model, FIG. 9A, n=5/group): significantly lower Ki67+ area
- Histopathology (H&E): acinar cell atrophy, mononuclear cell infiltration, severity of chronic pancreatitis ([1]; WA + cerulein (50 ug/kg) vs cerulein only, FIG. 2D, six animals per group): significantly reduced acinar cell atrophy and infiltration of mononuclear cells; also recorded: significantly reduced severity of chronic pancreatitis
- Serum amylase levels ([1]; WA + cerulein treated mice, cerulein only 952.8±228.8, p=0.045, FIG. 4): 696.3 ± 98.6 nmol/min/mL
- Neutrophils migrated into pancreas ([1]; WA treated mice, cerulein only 3,742±1,188, p=0.03, FIGS. 7F, 7G, standard or stringent CP model not stated): 719±276 cells per objective field at a magnification of ×200
- REG1α immunohistochemical staining of pancreas ([1]; WA treatment, cerulein only 3,779±448, p=0.003, brought to control levels, model not stated): 544±43
- Ki67+ cells in the pancreas ([1]; WA+cerulein, cerulein only 20.0±16.0, FIG. 8, 9A-B (percentage of Ki67+ cells, ImageJ), model not stated): 3.8±2.9
- Ly6g+ granulocyte infiltration of pancreas (immunohistochemical staining) ([1]; cerulein + WA vs cerulein, FIG. 7F, n=5/group, model not stated): significantly reduced inflammatory cell infiltration
- Serum amylase level compared to cerulein treated mice ([1]; serum at week 3 and week 4, one hour after last injection, FIG. 4, n=6/group): significantly lower serum amylase level
- Inflammasome gene expression in pancreas (qRT-PCR) ([1]; standard CP model, HMGB1, Pycard, NLRP3, IL-18, IL-1b, FIG. 13, n=4/group): decreased; also recorded: significantly reduced inflammasome related genes
- Pro-inflammatory and pro-apoptotic gene expression in pancreas (qRT-PCR) ([1]; standard CP model, IL-6, TNFα, Nos2, Casp3, Casp7, Bax, FIG. 15, n=4/group): decreased; also recorded: significantly reduced most of these gene signals
- ER stress gene expression in pancreas (qRT-PCR) ([1]; standard CP model, Perk, Atf6, Ern1, Eif2a, Atf4, xbp1, Chop, FIG. 11, n=4/group): decreased; also recorded: significantly reduced ER stress gene signals
- IL-6 in pancreas tissue lysate (Luminex) ([1]; standard chronic pancreatitis, FIG. 5A, n=4/group): effectively blocked production
- MCP-1 in pancreas tissue lysate (Luminex) ([1]; standard chronic pancreatitis, FIG. 5B, n=4/group): effectively blocked production
- Ki67+ area in pancreas (ImageJ, semi-quantitative) ([2]; Stringent CP Model, FIG. 9B, n=5/group): significantly lower Ki67+ area
- Inflammasome gene expression in pancreas (qRT-PCR) ([2]; stringent CP model, HMGB1, NLRP3, IL-1b, FIG. 14, n=4/group): decreased; also recorded: significantly reduced inflammasome related genes
- Pro-inflammatory and pro-apoptotic gene expression in pancreas (qRT-PCR) ([2]; stringent CP model, IL-6, TNFα, Nos2, Bax, FIG. 16, n=4/group): decreased; also recorded: significantly reduced most of these gene signals
- ER stress gene expression in pancreas (qRT-PCR) ([2]; stringent CP model, Perk, Ern1, Atf6, Chop, xbp1, eif2a, Atf4, FIG. 12, n=4/group): decreased; also recorded: significantly reduced ER stress gene signals
- IL-6 in pancreas tissue lysate (Luminex) ([2]; stringent chronic pancreatitis, FIG. 6A, n=4/group): effectively blocked production
- MCP-1 in pancreas tissue lysate (Luminex) ([2]; stringent chronic pancreatitis, FIG. 6B, n=4/group): effectively blocked production
- Histopathology (H&E, Sirius red): pancreas damage, acinar cell atrophy, mononuclear cell infiltration, fibrosis [2]: significantly reduced acinar cell atrophy and infiltration of mononuclear cells
- Histopathology (H&E, Sirius red): pancreas damage, acinar cell atrophy, mononuclear cell infiltration, fibrosis ([2]; listed as Withaferin): significantly reduced pancreas damage and fibrosis
- Inflammatory cell infiltration into pancreas (flow cytometry) ([3]; CD45+CD11b+ myeloid cells, CD45+Ly6g+ granulocytes, CD45+CD14+ monocytes, FIG. 18): reduced percentage of infiltrating cells
- Leucocyte (CD45+) infiltration into pancreas (flow cytometry) ([3]; FIG. 19G-J): reduced percentage of infiltrating cells
- Serum amylase compared to cerulein treated mice ([3]; serum one hour after last cerulein injection, FIG. 17): significantly decreased; also recorded: significantly reduced serum amylase
- NF-κB p65 translocation into the nucleus (immunohistochemical staining of pancreatic tissue) (NF-κB p65; FIG. 10C): significantly prevented NF-κB translocation into the nucleus
- NF-κB P65 protein expression in pancreatic lysate (protein blot) (NF-κB p65; FIG. 10D): significantly inhibited overexpression
- Histopathology (H&E) of pancreas, WA alone [4]: normal phenotype
